Where two headings read alike, the source gives them in different places. Each block holds one molecule with its values, some of them ahead of it.
Key:
Format in all cases: cell-based
[1] = system: colorectal HCT116 cells; assay: PrestoBlue cell viability assay, 5 days treatment; settings: for cytotoxic effect / effect on cell viability of prodrug alone: HCT116, without palladium, 5 days, doses up to 1,000 μM (FIG. 18A: 0.1-300 μM); for toxigenic effect of prodrug combined with Pd^0-resins (BOOM conversion): HCT116, prodrug 100 μM + Pd^0-resin 1 mg/mL
Procedure: (§1) The toxicities of 5FU and its prodrugs were compared by performing dose-response studies with 5FU and Pro-5FU (0.01 μM to 1 mM). Doses of Pro-5FU and 5FU (0.01, 0.03, 0.1, 0.3, 1, 3, 10, 30 and 100 μM, for both cell lines, and additional doses of 300 μM and 1,000 μM for colorectal HCT116 cells) were incubated with cells for 5 days and cell viability measured to determine the corresponding EC values. Cell viability was analysed by fluoresce intensity nm; nm) after 45 min incubation with PrestoBlue™ Reagent (Life Technologies).
(§2) The toxigenic effect as a result of in situ generation of 5FU in cell culture was determined by incubating colorectal HCT116 cells or pancreatic BXPc-3 cells in tissue culture media containing 0.1% (viv) DMSO and a) Pd^0-resin (1 mg/mL, negative control); b) prodrug (negative, control); or c) Pd^0-resin (1 mg prodrug (reaction assay). Cells incubated in 0.1% (v/v) DMSO in media was used as an untreated cell reference standard (100% viability). A PrestoBlue® cell viability assay as described above was carried out and fluorescent intensities compared to the untreated cell control. Prodrug concentrations were 100 μM for HCT116 cells, and 30 μM for BxPC-3 cells.
(§3) HCT116 and BXPc-3 cells were plated in Dulbecco's Modified Eagle Media (DMEM) and Roswell Park Memorial Institute (RPMI) respectively, supplemented with serum (10% FBS) and L-glutamine (2 mM). Cells were seeded in a 96 wail plate format with a density of either 30.000 cells and incubated for 48 h at 37° C. and 5% CO2 before treatment. Each well was then replaced with fresh media containing: Pd^0-resins (1 mg/ml) (negative control); prodrug (0.01 μM to 1 mM) in DMSO (0.1% v/v) (negative control); 5FU (0.01 μM to 1 mM) in DMSO (0.1% v/v) (positive control); or a combination of Pd^0 resin+prodrug (0.01 μM to 1 mM in 0.1% v/v DMSO). Cells incubated in 0.1% (v/v) DMSO in media were used as untreated cell reference standard (i.e. 100% cell viability). Cells were incubated in the fresh media for 5 days. PrestoBlue cell viability reagent (Life Technologies) (10% v/v) was then added to each well and the plate incubated for 45 min, Fluorescence intensity values (detected using a PerkinElmer EnVision 2101 multilabel reader with excitation filter at 540 nm and emissions filter at 590 nm) were determined relative to the untreated cell control.

[2] = system: total p53 protein and phosphorylated p53 (Serine 15) in HCT116 cells; assay: Zeptosens Reverse Phase Protein Microarray analysis; settings: HCT116, 100 μM, 24 h exposure
Procedure: Post-translational modifications of cancer relevant pathways (including p53) were quantified by antibody-based proteomics across time-series studies using Zeptosens Reverse Phase Protein Microarray analysis.
Cells were plated in their respective supplemented media in a 6 well plate at a density of 240,000 cells/mL and incubated for 46 h. Before adding to the cells, Fro-5FU (100 μM for HCT116) and Pd^0-resins (1 mg/mL) were incubated for 24h to overcome the time relapse required to convert Pro-5FU into 5FU. Cells were treated with the Pd^8 resin+Pro-5FU combination and the controls (as before: untreated cells; Pd^0; Pro-5FU; and 5FU) and incubated for 6 and 24 h. Afterwards, the cells were washed with PBS (2×3 mL) and lysed with Zeptosens CLB1 lysis buffer (90 μl). Samples were analyzed by Zeptosens RPPA using the following specific conditions. Tumor cell lysates were normalized to a uniform protein concentration with spotting buffer CSBL1 (Zeptosens-Bayer) prior to preparing a final 4-fold concentration series of; 0.2; 0.15; 0.1 and […]. […] A weighted linear fit through the 4-fold concentration series was used to calculate relative fluorescence intensity (RFI) value for each sample replicate. […] Abundance levels of total p53 protein and phosphorylated p53 (Serine 15) were plotted as RFI data calculated by the ZeptoView™ 3.1 software.

[3] = system: pancreatic BxPC-3 cells; assay: PrestoBlue cell viability assay, 5 days treatment; settings: for EC50: Homo sapiens, 120 h, PrestoBlue; for toxigenic effect of prodrug combined with Pd^0-resins (BOOM conversion): BxPC-3, prodrug 30 μM + Pd^0-resin 1 mg/mL
Procedure: as §1, §2, §3

[4] = system: pancreatic BxPC-3 cells; assay: Test for competitive inhibition by prodrug (cell viability); settings: BxPC-3, 5FU 1 μM + Pro-5FU 0.1-1,000 μM, prodrug/drug ratio up to 100:1
Procedure: (§4) Cells were incubated with 5FU (10 μM for HCT116 cells and 1 μM for BxPC-3 cells) in combination with increasing doses of Pro-5FU (0.1-1,000 μM), and cell viability determined.

[5] = system: colorectal HCT116 cells; assay: as above; settings: HCT116, 5FU 10 μM + Pro-5FU 0.1-1,000 μM, prodrug/drug ratio up to 100:1
Procedure: as §4

[6] = system: BxPC-3 cells; assay: Real-time confluence study (Incucyte live-cell imaging); settings: BxPC-3, 30 μM, 5 days (120 h)
Procedure: FIGS. 9A and 9B show real-time cell confluence study data for Pro-5FU and 5FU (HCT116 cells in FIG. 9A and BXPc-3 cells in FIG. 9B) plotting cell proliferation (indicated by % phase object confluence) against time. […]
(§5) To study the phenotypic effect of the prodrug catalyst system compared to 5FU, cell proliferation was monitored for 5 days (120 h) using the high-content live-cell imaging system Incucyte™ Essen BioScience) placed in an incubator (5% CO2, 37° C.). Cell confluence analysis and supplementary movies 1 and 2 were carried out using the Incucyte software. Experiments (performed as described above for the dose response cell viability assay) were imaged by time-lapse contrast phase microscopy and cell growth represented as a function of total cell confluence.

[7] = system: HCT116 cells; assay: as above; settings: HCT116, 100 μM, 5 days (120 h)
Procedure: FIGS. 9A and 9B show real-time cell confluence study data for Pro-5FU and 5FU (HCT116 cells in FIG. 9A and BXPc-3 cells in FIG. 9B) plotting cell proliferation (indicated by % phase object confluence) against time. Cell proliferation was monitored for 5 days (120 h) using the high-content live-cell imaging system Incucyte™ (Essen BioScience) placed in an incubator (5% CO2, 37° C.), Pro-5FU and 5FU were used at 100 μM and 10 μM for HCT116 and BXPc-3 cells, respectively.
as §5

SMILES: C#CCn1c(=O)c(F)cn([C@H]2CC(O)[C@@H](CO)O2)c1=O (stereo partly shown) [Compound 11, 3-propergyl-floxuridine]
times less cytotoxic effect on cell viability than floxuridine ([1]; HCT116, dose range 0.003-30 μM, without palladium): over 1000 times

fold reduction in effect, EC50 (Pro-5FU)/EC50 (5FU) ([1]; HCT116, prodrug without palladium): greater than 500 fold
SMILES: C#CCn1cc(F)c(=O)[nH]c1=O [Pro-5FU]
abundance of total and Ser15-phosphorylated p53 [2]: no induction
fold reduction in effect versus 5FU ([3]; BxPC-3, prodrug without palladium): greater than 700 fold
cytotoxic effect / effect on cell viability of prodrug alone [1]: no effect
effect of prodrug on cytotoxicity of 5FU [4]: no antagonistic effect
effect of prodrug on cytotoxicity of 5FU [5]: no antagonistic effect

SMILES: O=c1[nH]c(=O)n([C@H]2C[C@H](O)[C@@H](CO)O2)cc1F [FUDR, floxuridine]
times more potent than 5-FU [1]: around 50 times

EC50 ([3]; BXPc-3, 5 days incubation, read-out: EC50 5FU): 136 nM
EC50 ([3]; BxPC-3, 5 days incubation, read-out: EC50): 136 nM
EC50 ([1]; Homo sapiens, HCT-116, 120 h, HCT116, 5 days incubation, PrestoBlue, read-out: EC50 5FU): 2000 nM
SMILES: O=c1[nH]cc(F)c(=O)[nH]1 [Compound 5FU, 5-fluorouracil]
cell growth (confluence) vs time [6]: decreased rapidly after a few hours
abundance of total and Ser15-phosphorylated p53 [2]: overexpressed
cell growth (confluence) vs time [7]: decreased rapidly after a few hours

SMILES: O=c1[nH]c(=O)n(Cc2ccccc2)cc1F [Bn-5FU]
toxigenic effect of prodrug combined with Pd^0-resins (BOOM conversion) [3]: low levels of toxicity
toxigenic effect of prodrug combined with Pd^0-resins (BOOM conversion) [1]: low levels of toxicity

SMILES: C=CCn1cc(F)c(=O)[nH]c1=O [All-5FU]
toxigenic effect of prodrug combined with Pd^0-resins (BOOM conversion) [3]: No appreciable cytotoxicity
toxigenic effect of prodrug combined with Pd^0-resins (BOOM conversion) [1]: No appreciable cytotoxicity

SMILES: C#CCn1c(=O)[nH]cc(F)c1=O [Compound 6]
cytotoxic effect / effect on cell viability of prodrug alone [1]: no effect

Source: patent US20180362473A1, “BIOORTHOGONAL METHODS AND COMPOUNDS” (The University Court of the University of Edinburgh, priority 2013, published 2018)
